Assay results reported in ChEMBL document CHEMBL3525961, “Identification of human UDP-glucuronosyltransferases involved in N-carbamoyl glucuronidation of lorcaserin” (Drug Metab Dispos, 2012).

Columns and labels:
[1] = biological target: T1, UDP-glucuronosyltransferase 2B17 (Homo sapiens, UniProt O75795); assay: Activity of human recombinant UGT2B17 expressed in insect cells assessed as intrinsic clearance for enzyme-mediated N-carbamoyl glucuronide formation; type: ADME
T1 sequence (O75795 whole entry): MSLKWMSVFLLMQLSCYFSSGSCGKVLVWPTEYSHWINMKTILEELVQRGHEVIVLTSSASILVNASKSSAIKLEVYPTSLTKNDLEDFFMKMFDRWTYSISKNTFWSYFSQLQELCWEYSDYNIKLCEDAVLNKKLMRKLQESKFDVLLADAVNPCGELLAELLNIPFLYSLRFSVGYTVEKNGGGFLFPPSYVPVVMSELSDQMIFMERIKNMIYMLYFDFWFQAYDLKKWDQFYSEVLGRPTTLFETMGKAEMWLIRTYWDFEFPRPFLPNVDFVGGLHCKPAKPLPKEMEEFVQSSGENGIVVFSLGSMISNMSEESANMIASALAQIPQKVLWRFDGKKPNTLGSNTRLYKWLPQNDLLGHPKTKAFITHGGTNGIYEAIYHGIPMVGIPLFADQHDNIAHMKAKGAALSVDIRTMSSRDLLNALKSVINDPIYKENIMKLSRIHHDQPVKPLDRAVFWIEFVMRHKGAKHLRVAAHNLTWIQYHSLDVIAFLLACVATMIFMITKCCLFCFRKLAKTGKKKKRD

[2] = biological target: T2, UDP-glucuronosyltransferase 1A9 (Homo sapiens, UniProt O60656); assay: Activity of human recombinant UGT1A9 expressed in insect cells assessed as intrinsic clearance for enzyme-mediated N-carbamoyl glucuronide formation per mg protein; type: ADME
T2 sequence (O60656 whole entry): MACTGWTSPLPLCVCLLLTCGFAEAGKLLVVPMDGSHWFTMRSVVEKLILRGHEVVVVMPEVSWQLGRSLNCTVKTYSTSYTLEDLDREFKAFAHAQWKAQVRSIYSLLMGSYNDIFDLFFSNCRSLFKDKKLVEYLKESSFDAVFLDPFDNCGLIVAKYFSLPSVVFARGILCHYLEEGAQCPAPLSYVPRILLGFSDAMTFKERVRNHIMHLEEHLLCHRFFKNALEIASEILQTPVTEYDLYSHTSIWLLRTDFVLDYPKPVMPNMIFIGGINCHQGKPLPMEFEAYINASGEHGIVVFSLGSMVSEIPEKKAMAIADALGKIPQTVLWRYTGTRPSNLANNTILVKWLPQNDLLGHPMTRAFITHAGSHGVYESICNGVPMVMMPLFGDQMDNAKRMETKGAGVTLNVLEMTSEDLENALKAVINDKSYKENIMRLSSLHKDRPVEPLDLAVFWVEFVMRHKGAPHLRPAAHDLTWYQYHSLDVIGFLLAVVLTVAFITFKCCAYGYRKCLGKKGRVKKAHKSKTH

[3] = biological target: T3, UDP-glucuronosyltransferase 2B7 (Homo sapiens, UniProt P16662); assay: Activity of human recombinant UGT2B7 expressed in insect cells assessed as intrinsic clearance for enzyme-mediated N-carbamoyl glucuronide formation; type: ADME
T3 sequence (P16662 whole entry): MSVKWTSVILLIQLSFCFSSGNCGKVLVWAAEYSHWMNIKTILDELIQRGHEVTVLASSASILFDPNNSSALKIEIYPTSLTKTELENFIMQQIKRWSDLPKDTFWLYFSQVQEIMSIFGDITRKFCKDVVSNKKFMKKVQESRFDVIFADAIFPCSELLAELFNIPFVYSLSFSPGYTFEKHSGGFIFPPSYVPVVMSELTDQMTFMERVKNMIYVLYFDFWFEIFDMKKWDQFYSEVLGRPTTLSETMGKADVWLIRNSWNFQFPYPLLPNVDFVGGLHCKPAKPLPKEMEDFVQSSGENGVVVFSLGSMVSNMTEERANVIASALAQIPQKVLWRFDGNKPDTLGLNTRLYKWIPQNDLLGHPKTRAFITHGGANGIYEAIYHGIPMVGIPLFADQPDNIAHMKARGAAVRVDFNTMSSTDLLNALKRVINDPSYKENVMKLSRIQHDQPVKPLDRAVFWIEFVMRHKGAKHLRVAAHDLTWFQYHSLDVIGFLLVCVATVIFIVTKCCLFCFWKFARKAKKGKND

Liver microsome [4] = assay: Drug metabolism in human liver microsomes assessed as intrinsic clearance for N-carbamoyl glucuronide formation per mg protein; type: ADME
Liver = assay: Drug metabolism in human liver assessed as N-carbamoyl glucuronide formation per mg protein at 100 uM; type: ADME, tissue-based
[5] = Drug metabolism in smoking human lung assessed as N-carbamoyl glucuronide formation per mg protein at 100 uM; type: ADME, tissue-based
Liver microsome [6] = assay: Drug metabolism in human liver microsomes assessed as 25 uM bisphenol-mediated inhibition of N-carbamoyl glucuronide formation at 100 uM; type: ADME
Liver microsome [7] = assay: Drug metabolism in human liver microsomes assessed as N-carbamoyl glucuronide formation at 100 uM in presence of 5 uM bisphenol; type: ADME
[8] = biological target: T4, UDP-glucuronosyltransferase 1A6 (Homo sapiens, UniProt P19224); assay: Activity of human recombinant UGT1A6 expressed in insect cells assessed as intrinsic clearance for enzyme-mediated N-carbamoyl glucuronide formation; type: ADME
T4 sequence (P19224 whole entry): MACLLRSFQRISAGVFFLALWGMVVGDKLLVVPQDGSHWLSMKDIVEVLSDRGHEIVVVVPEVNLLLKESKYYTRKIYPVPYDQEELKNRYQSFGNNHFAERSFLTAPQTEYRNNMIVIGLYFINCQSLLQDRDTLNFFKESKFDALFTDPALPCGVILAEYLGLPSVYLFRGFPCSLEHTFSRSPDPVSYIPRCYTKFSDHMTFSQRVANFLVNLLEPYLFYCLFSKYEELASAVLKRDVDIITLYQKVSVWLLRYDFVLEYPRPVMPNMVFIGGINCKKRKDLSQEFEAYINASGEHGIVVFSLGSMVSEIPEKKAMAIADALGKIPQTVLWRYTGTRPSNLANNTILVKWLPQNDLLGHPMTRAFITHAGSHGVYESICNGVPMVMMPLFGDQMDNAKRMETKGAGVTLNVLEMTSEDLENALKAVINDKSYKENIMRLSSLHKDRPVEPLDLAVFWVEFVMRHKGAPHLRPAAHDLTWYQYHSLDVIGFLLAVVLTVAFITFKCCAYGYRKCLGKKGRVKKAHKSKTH

[9] = biological target: T1, UDP-glucuronosyltransferase 2B17; assay: Activity of human recombinant UGT2B17 expressed in insect cells assessed as intrinsic clearance for enzyme-mediated N-carbamoyl glucuronide formation per mg protein; type: ADME
Liver microsome [10] = assay: Drug metabolism in human liver microsomes assessed as N-carbamoyl glucuronide formation; type: ADME
[11] = biological target: T5, UDP-glucuronosyltransferase 2B15 (Homo sapiens, UniProt P54855); assay: Activity of human recombinant UGT2B15 expressed in insect cells assessed as intrinsic clearance for enzyme-mediated N-carbamoyl glucuronide formation per mg protein; type: ADME
T5 sequence (P54855 whole entry): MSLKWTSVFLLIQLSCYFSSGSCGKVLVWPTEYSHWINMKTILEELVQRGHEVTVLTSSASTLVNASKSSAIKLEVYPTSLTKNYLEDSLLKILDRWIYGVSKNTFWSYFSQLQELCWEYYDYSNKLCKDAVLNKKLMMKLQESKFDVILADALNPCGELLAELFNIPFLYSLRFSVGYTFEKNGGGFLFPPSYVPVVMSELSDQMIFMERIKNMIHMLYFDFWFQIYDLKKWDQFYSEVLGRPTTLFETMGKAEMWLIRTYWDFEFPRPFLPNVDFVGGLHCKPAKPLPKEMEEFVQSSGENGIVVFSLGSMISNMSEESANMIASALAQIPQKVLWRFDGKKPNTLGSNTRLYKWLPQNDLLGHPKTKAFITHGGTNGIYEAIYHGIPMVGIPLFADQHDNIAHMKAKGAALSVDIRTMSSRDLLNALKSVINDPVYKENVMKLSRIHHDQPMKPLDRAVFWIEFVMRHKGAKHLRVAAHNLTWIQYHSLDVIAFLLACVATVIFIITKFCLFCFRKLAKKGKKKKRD

[12] = Drug metabolism in human intestine assessed as N-carbamoyl glucuronide formation per mg protein at 100 uM; type: ADME, tissue-based
Liver microsome [13] = assay: Drug metabolism in human liver microsomes assessed as 100 uM eugenol-mediated inhibition of N-carbamoyl glucuronide formation at 100 uM; type: ADME
Liver microsome [14] = assay: Drug metabolism in human liver microsomes assessed as N-carbamoyl glucuronide formation at 100 uM in presence of 5 uM mefenamic acid; type: ADME
[15] = biological target: T3, UDP-glucuronosyltransferase 2B7; assay: Activity of human recombinant UGT2B7 expressed in insect cells assessed as intrinsic clearance for enzyme-mediated N-carbamoyl glucuronide formation per mg protein; type: ADME
[16] = biological target: T5, UDP-glucuronosyltransferase 2B15; assay: Activity of human recombinant UGT2B15 expressed in insect cells assessed as intrinsic clearance for enzyme-mediated N-carbamoyl glucuronide formation; type: ADME
[17] = biological target: T2, UDP-glucuronosyltransferase 1A9; assay: Activity of human recombinant UGT1A9 expressed in insect cells assessed as intrinsic clearance for enzyme-mediated N-carbamoyl glucuronide formation; type: ADME
[18] = Drug metabolism in non-smoking human lung assessed as N-carbamoyl glucuronide formation per mg protein at 100 uM; type: ADME, tissue-based
Liver microsome [19] = assay: Drug metabolism in human liver microsomes assessed as N-carbamoyl glucuronide formation per mg protein; type: ADME
Liver microsome [20] = assay: Drug metabolism in human liver microsomes assessed as N-carbamoyl glucuronide formation at 100 uM in presence of 20 uM eugenol; type: ADME
[21] = Drug metabolism in human kidney assessed as N-carbamoyl glucuronide formation per mg protein at 100 uM; type: ADME, tissue-based
Liver microsome [22] = assay: Drug metabolism in human liver microsomes assessed as 100 uM eugenol-mediated inhibition of N-carbamoyl glucuronide formation at 1 uM; type: ADME

For `C[C@H]1CNCCc2ccc(Cl)cc21.Cl.O`, the Drug metabolism [1] was “metabolite_detected”, the CL [2] was 0.199 µL/min/g and the Drug metabolism [3] was “metabolite_detected”. It also gave a CLH (Liver microsome [4]) of 18.57 µL/min/g, a Drug metabolism (Liver) of 1028 pmol/min and a Drug metabolism [5] of 1.116 pmol/min. The “inhibition (INH)” value (Liver microsome [6]) was 30%, the Drug metabolism (Liver microsome [7]) was “metabolite_detected” and the Drug metabolism [8] was “metabolite_detected”. It also gave a CL [9] of 0.611 µL/min/g, a Km (Liver microsome [10]) of 128 µM and a CL [11] of 4.601 µL/min/g. The Drug metabolism [12] was 133.1 pmol/min, the “inhibition (INH)” value (Liver microsome [13]) was 11% and the Drug metabolism (Liver microsome [14]) was “metabolite_detected”. For the same molecule, the CL [15] was 1.987 µL/min/g, the Drug metabolism [16] was “metabolite_detected” and the Drug metabolism [17] was “metabolite_detected”. For the same molecule, the Drug metabolism [18] was 0.493 pmol/min, the Vmax (Liver microsome [19]) was 2379.2 pmol/min and the Drug metabolism (Liver microsome [20]) was “metabolite_detected”. The Drug metabolism [21] was 185.9 pmol/min and the “inhibition (INH)” value (Liver microsome [22]) was 18%.
